Results on five substances are retold here after US10227380B2, “Triazole-crosslinked and thioether-crosslinked peptidomimetic macrocycles” (AILERON THERAPEUTICS, INC., priority 2012, dated 2019).

The term EC50 denotes the concentration that produces a half-maximal response. As a reminder, the Ki is a dissociation constant, usually derived from enzyme kinetics or from competition with a known ligand. High values mean a looser hold on the target, low ones a stronger hold on the target.

One test concerns SJSA-1 cells. Briefly: Cell Viability Assay (MTT), SJSA-1. The test is classed as cell-based. As to conditions: read-out: SJSA-1 EC50 (72 h).
A further test deals with T1, MDMX (Homo sapiens, UniProt O15151).
T1 sequence (O15151 1-125): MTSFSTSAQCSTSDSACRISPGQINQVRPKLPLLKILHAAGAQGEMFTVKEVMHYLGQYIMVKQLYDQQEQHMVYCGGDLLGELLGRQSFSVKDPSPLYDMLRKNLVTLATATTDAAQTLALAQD
Briefly: Competitive Fluorescence Polarization Assay for MDMX. The test is classed as binding. As to the method: Competitive Fluorescence Polarization Assay for MDMX
The assay is performed according to the following general protocol: • 1. Dilute MDMX (In-house, 40 kD) into FP buffer (High salt buffer-200 mM Nacl, 5 mM CHAPS, pH 7.5.) to make 300 nM (2×) working stock solution. 2. Add 20 μl of 300 nM (2×) of protein stock solution into each well of 96-well black HE microplate (Molecular Devices) • 3. Dilute 1 mM (in 100% DMSO) of FAM labeled linear peptide with DMSO to 100 μM (dilution 1:10). Then, dilute from 100 μM to 10 μM with water (dilution 1:10) and then dilute with FP buffer from 10 μM to 40 nM (dilution 1:250). This is the working solution which will be a 10 nM concentration in well (dilution 1:4). Keep the diluted FAM labeled peptide in the dark until use. • 4. Make unlabeled peptide dose plate with FP buffer starting with 5 μM (final) of peptide and making 5 fold serial dilutions for 6 points using following dilution scheme. • 5. Dilute 10 mM (in 100% DMSO) with DMSO to 5 mM (dilution 1:2). Then, dilute from 5 mM to 500 μM with H2O (dilution 1:10) and then dilute with FP buffer from 500 μM to 20 μM (dilution 1:25). Making 5 fold serial dilutions from 20 μM (4×) for 6 points. • 6. Transfer 10 μl of serial diluted unlabeled peptides to each well which is filled with 20 μl of 300 nM of protein. • 7. Add 10 μl of […] of FAM labeled peptide into each well and incubate for 3 hr to read. […]
For orientation: In fluorescence polarisation assays a small probe gives low polarisation when free and higher when bound to something large.

The next test has as its target MDM2 (Homo sapiens, UniProt Q00987). Briefly: Competitive Fluorescence Polarization Assay for MDM2. The test is classed as binding. The protocol: Competitive Fluorescence Polarization Assay for MDM2
The assay is performed according to the following general protocol: • 1. Dilute MDM2 (In-house, 41 kD) into FP buffer (High salt buffer-200 mM Nacl, 5 mM CHAPS, pH 7.5) to make 84 nM (2×) working stock solution. • 2. Add 20 μl of 84 nM (2×) of protein stock solution into each well of 96-well black HE microplate (Molecular Devices) • 3. Dilute 1 mM (in 100% DMSO) of FAM labeled linear peptide with DMSO to 100 μM (dilution 1:10). Then, dilute from 100 μM to 10 μM with water (dilution 1:10) and then dilute with FP buffer from 10 μM to 40 nM (dilution 1:250). This is the working solution which will be a 10 nM concentration in well (dilution 1:4). Keep the diluted FAM labeled peptide in the dark until use. • 4. Make unlabeled peptide dose plate with FP buffer starting with 1 μM (final) of peptide and making 5 fold serial dilutions for 6 points using following dilution scheme. • Dilute 10 mM (in 100% DMSO) with DMSO to 5 mM (dilution 1:2). Then, dilute from 5 mM to 500 μM with H2O (dilution 1:10) and then dilute with FP buffer from 500 μM to 20 μM (dilution 1:25). Making 5 fold serial dilutions from 4 μM (4×) for 6 points. • 5. Transfer 10 μl of serial diluted unlabeled peptides to each well which is filled with 20 μl of 84 nM of protein. • 6. Add 10 μl of […] of FAM labeled peptide into each well and incubate for 3 hr to read. […]

Bridge positions count the residues as written; N and C are the ends. Square brackets hold non-standard residues; d marks the D form. * marks the point of attachment. 5FAM = O=C1OC2(c3ccc(O)cc3Oc3cc(O)ccc32)c2ccc(C(=O)*)cc21; Cba = N[C@@H](CC1CCC1)C(=O)O; βAla = NCCC(=O)O

Sequence of MDM2 (Q00987 1-125): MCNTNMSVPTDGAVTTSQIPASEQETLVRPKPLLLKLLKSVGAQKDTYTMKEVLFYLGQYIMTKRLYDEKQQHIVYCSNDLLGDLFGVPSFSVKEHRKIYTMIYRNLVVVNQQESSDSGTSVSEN
Method for SJSA-1 cells: The assay is performed according to the following general protocol: • Cell Plating: Trypsinize, count and seed cells at the pre-determined densities in 96-well plates a day prior to assay.
Add 180 μL of the assay media per well. Control wells with no cells, receive 200 μl media.
Peptide dilution: all dilutions are made at room temperature and added to cells at room temperature. • Prepare 10 mM stocks of the peptides in DMSO. Serially dilute the stock using 1:3 dilution scheme to get 10, 3.3, 1.1, 0.33, 0.11, 0.03, 0.01 mM solutions using DMSO as diluents. […] Also prepare DMSO/sterile water (3% DMSO) mix for control wells. • Thus the working stocks concentration range μM will be 300, 100, 30, 10, 3, 1, 0.3 and 0 μM. […] H1-H3 will receive 20 ul of assay media. H4-H9 will receive 20 ul of 3% DMSO-water vehicle. […] Nutlin was diluted using the same dilution scheme as peptides.
(20 μl of 300 μM peptide+180 μl of cells in media=30 μM final concentration in 200 μl volume in wells). Mix gently a few times using pipette. […] Viability of SJSA-1, RKO, RKO-E6, HCT-116 cells is determined on day 3, MCF-7 cells on day 5 and SW-480 cells on day 6. At the end of designated incubation time, allow the plates to come to room temperature. Remove 80 μl of assay media from each well. Add 15 μl of thawed MTT reagent to each well. • Allow plate to incubate for 2 h at 37° C. in humidified 5% CO2 atmosphere and add 100 μl solubilization reagent as per manufacturer's protocol.

In the case of “452 (Ac-LTF[Alpha‑Me R‑azide 1,5 triazole (6 carbon) alanine]AYWAQL[Alpha‑Me alkyne 1,5 triazole (5 carbon) alanine]AAAAA[dA]-NH2; triazole 4-11; not fully specified; printed as Ac-LTF$5rn6AYWAQL$5a5AAAAAa-NH2) [compound 452]”, in the test with SJSA-1 cells, the EC50 was above 30 µM.
“461 (5FAM-[βAla]LTF[Alpha‑Me R‑azide 1,4 triazole (6 carbon) alanine]EYWAQ[Cba][Alpha‑Me alkyne 1,4 triazole (5 carbon) alanine]SAA-NH2; triazole 5-12; not fully specified) [compound 461]”: the EC50 in the test on SJSA-1 cells lay within 5 to 15 µM.
Turning to “466 (LTFAEYWAQAASAA; not fully specified; stapled, Ac, NH2, Cba5Prp; N-term Ac; MOD_RES (4)..(4): Alpha-Me R-azide 1,4 triazole (6 carbon) alanine olefin amino acid connected by an all-carbon crosslinker comprising one double bond; misc_feature (4)..(11): Crosslink between residues; MOD_RES () [compound 466]”, the Ki with MDMX and in the test with MDM2 was below 0.01 µM each time.
For “464 (5FAM-[βAla]LTA[Alpha‑Me R‑azide 1,5 triazole (6 carbon) alanine]EYWAQ[Cba][Alpha‑Me alkyne 1,5 triazole (5 carbon) alanine]SAA-NH2; triazole 5-12; not fully specified) [compound 464]”, the EC50 with SJSA-1 cells is above 30 µM.
Still for that read-out and setting: the figure for “463 (5FAM-[βAla]LTF[Alpha‑Me R‑azide 1,5 triazole (6 carbon) alanine]EYWAQ[Cba][Alpha‑Me alkyne 1,5 triazole (5 carbon) alanine]SAA-NH2; triazole 5-12; not fully specified) [compound 463]” is 15 to 30 µM.
